# Assay results as given in PMC8667043, “First-in-Class Inhibitors of the Ribosomal Oxygenase MINA53” (Journal of Medicinal Chemistry, 2021).
# Columns and labels:
# Format in all cases: biochemical
# KDM4D = target: T1, KDM4D (Homo sapiens, UniProt Q6B0I6); assay: AlphaScreen KDM inhibition assay; settings: read-out: IC50 KDM4D (2.0 nM), enzyme 2.0 nM, means ± SD
# T1 construct: (M1-G373); His6 (N); made in house; host or cells: E. coli
# T1 sequence (Q6B0I6 1-373): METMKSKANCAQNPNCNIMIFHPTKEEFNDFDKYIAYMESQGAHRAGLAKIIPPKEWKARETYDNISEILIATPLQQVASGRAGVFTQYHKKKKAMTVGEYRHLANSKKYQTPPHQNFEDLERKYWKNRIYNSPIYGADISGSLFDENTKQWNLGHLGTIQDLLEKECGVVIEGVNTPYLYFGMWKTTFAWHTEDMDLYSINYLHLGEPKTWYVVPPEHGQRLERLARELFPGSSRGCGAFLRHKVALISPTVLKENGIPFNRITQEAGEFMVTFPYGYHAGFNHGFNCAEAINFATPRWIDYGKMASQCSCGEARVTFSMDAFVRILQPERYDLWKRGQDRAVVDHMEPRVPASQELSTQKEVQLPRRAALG
# FIH = FIH (Homo sapiens, UniProt Q9NWT6); assay: RapidFire FIH inhibition assay; settings: read-out: IC50 FIH (50 nM); MS based; enzyme 50 nM; means ± SD
# FIH, sequence (Q9NWT6 whole entry): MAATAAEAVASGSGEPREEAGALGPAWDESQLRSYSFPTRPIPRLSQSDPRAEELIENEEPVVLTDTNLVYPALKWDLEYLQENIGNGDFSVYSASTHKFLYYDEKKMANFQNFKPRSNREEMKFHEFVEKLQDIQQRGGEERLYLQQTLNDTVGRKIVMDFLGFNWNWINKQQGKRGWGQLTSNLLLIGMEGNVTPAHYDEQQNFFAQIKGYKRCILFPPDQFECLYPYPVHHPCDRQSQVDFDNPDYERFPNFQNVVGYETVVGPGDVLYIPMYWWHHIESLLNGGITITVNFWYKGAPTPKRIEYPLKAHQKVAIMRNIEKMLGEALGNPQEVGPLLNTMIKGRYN
# Method: The reported procedure was used.[28] Tris(hydroxymethyl)aminomethane was from Fisher; all other reagents were from Sigma-Aldrich and of the highest available purity. FAS was prepared freshly every day as a 400 mM stock solution in 20 mM HCl, and this was then diluted to 1 mM in deionized water. […] The synthetic “consensus” ankyrin repeat derived peptide ([…]-CONH2) was synthesized by GL Biochem (Shanghai) Ltd and dissolved to 1 mM in deionized water. […] After 15 min, the reaction was quenched by the addition of 4 μL of 10% (v/v) aqueous formic acid and the reaction was transferred to a RapidFire RF360 high throughput sampling robot. The samples were aspirated under vacuum onto a C4 solid-phase extraction (SPE) cartridge. After an aqueous washing step (0.1% formic acid), to remove nonvolatile buffer components from the C4 SPE cartridge, peptides were eluted in an organic washing step (85% (v/v) aqueous acetonitrile, 0.1% formic acid) and injected into an Agilent 6530 Q-TOF mass spectrometer. Ion chromatogram data were extracted for the nonhydroxylated peptide substrate and the hydroxylated peptide product; peak area data for the extracted ion chromatograms were integrated using RapidFire Integrator software. Percentage conversion of the substrate to the product was calculated in Microsoft excel, and IC50 curves were generated using GraphPad Prism 5.0.
# p300 = target: T2, p300 (Homo sapiens, UniProt Q09472); assay: HotSpot KAT assay; settings: 100 µM; means ± SD of three experiments; read-out: Residual Enzymatic Activity (%) p300
# T2 construct: purchased Reaction Biology Corporation, Malvern, PA, USA
# T2 sequence (Q09472 1284-1673): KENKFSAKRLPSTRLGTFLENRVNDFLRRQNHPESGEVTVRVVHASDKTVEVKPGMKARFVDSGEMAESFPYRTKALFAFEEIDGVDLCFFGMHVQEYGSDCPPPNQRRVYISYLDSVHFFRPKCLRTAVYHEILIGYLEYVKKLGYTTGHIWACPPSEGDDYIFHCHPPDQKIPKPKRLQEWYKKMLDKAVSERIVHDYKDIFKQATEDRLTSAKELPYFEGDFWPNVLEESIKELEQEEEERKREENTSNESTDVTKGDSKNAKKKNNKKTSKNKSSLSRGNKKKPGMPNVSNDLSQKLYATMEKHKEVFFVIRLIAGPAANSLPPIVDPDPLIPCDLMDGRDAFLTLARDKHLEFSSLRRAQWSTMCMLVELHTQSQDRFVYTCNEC
# Method: (§1) The ef fects of 1-13 on th e histone lysine acetyltr a nsferas e activity (KAT ) o f p300 and PCAF were
# (§2) determined using the HotSpot KAT assay ( Reaction Biology Corporation, Malvern, PA, USA)
# (§3) according to the supplier’s procedure. In brief, recombinant form s of catal ytic domains of PCAF
# (§4) NaCl, 0.1 mM EDTA, 1 mM DTT, 1 mM PMSF, 1% (v/v) DMSO) fo r 1 h at 30 °C in the presenc e
# (§5) or absence of various concentrations of the inhibitors. Histone H3 acetyl ation was assessed by
# (§6) liquid scintillation counting using a Tri-Carb 2800TR Liquid Scintillation Analyzer
# (§7) (PerkinElmer). Assays at fixed con centration doses were performed in triplicate and analyzed
# (§8) using Excel and GraphPad Prism 6.0 software (GraphPad Software Inc., San Diego, CA).
# PCAF = target: T3, PCAF (Homo sapiens, UniProt Q92831); assay: HotSpot KAT assay; settings: means ± SD of three experiments, read-out: Residual Enzymatic Activity (%) PCAF
# T3 construct: purchased Reaction Biology Corporation, Malvern, PA, USA
# T3 sequence (Q92831 492-658): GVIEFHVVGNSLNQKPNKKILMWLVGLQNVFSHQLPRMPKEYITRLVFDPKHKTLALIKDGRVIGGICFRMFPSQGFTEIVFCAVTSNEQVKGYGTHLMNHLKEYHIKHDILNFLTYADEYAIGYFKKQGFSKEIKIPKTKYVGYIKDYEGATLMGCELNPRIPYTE
# Method: as §1, §2, §3, §4, §5, §6, §7, §8
# KDM2A = target: T4, KDM2A (Homo sapiens, UniProt Q9Y2K7); assay: AlphaScreen KDM inhibition assay; settings: enzyme 25 nM, means ± SD
# T4 construct: (M1-P517); His6 (N); made in house; host or cells: insect cells
# T4 sequence (Q9Y2K7 1-517): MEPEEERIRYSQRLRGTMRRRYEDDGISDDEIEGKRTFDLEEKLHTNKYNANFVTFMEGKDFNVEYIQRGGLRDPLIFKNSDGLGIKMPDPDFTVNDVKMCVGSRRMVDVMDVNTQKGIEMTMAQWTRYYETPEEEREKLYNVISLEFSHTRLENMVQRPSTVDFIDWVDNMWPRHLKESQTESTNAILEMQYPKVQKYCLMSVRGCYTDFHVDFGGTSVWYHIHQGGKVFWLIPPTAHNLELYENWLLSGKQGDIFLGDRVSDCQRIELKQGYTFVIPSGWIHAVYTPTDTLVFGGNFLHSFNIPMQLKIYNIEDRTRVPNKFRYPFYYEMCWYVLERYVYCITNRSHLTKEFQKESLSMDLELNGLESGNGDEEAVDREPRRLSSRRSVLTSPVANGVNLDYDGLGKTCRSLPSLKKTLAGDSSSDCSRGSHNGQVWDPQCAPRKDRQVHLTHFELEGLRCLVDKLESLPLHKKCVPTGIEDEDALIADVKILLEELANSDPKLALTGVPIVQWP
Compound,IC50 (KDM4D) [µM],IC50 (FIH) [µM],remaining activity at 100 µM (p300) [%],remaining activity at 100 µM (PCAF) [%],IC50 (KDM2A) [µM]
"O=C(O)c1cnc(SCCc2ccccc2)[nH]c1=O [compound 9, 2-(Phenethylthio)-3,4-dihydro-4-oxopyrimidine-5-carboxylic Acid]",30.8 ± 2.2,23.8 ± 1.4,107 ± 4.8,102 ± 2.1,52.7 ± 4
"O=C(O)/C=C\Sc1ncc(C(=O)O)c(=O)[nH]1 [compound 13, (Z)-2-((2-carboxyvinyl)thio)-3,4-dihydro-4-oxopyrimidine-5-carboxylic Acid]",123 ± 8,86.6 ± 4.2,107 ± 4.2,104 ± 4.1,63.3 ± 3.7
"O=C(CSc1ncc(C(=O)O)c(=O)[nH]1)c1ccccc1 [compound 8, 2-((2-Oxo-2-phenylethyl)thio)-3,4-dihydro-4-oxopyrimidine-5-carboxylic Acid]",26.7 ± 1.9,19.4 ± 1.4,106 ± 3.5,103 ± 3.7,45.5 ± 3
"O=C(O)c1cnc(SCc2ccccc2)[nH]c1=O [compound 7, 2-(Benzylthio)-3,4-dihydro-4-oxopyrimidine-5-carboxylic Acid]",34.7 ± 1.6,20.2 ± 1.6,107 ± 3.8,101 ± 2.9,67.2 ± 3
"O=C(O)c1cnc(SCCCc2ccccc2)[nH]c1=O [compound 10, 2-((3-Phenylpropyl)thio)-3,4-dihydro-4-oxopyrimidine-5-carboxylic Acid]",59.1 ± 3.9,29.8 ± 2,97.9 ± 2,101 ± 2.7,68.3 ± 4.2
"O=C(O)c1cnc(SCC2CCCCC2)[nH]c1=O [compound 6, 2-((Cyclohexylmethyl)thio)-3,4-dihydro-4-oxopyrimidine-5-carboxylic Acid]",30.3 ± 3,7.8 ± 0.6,104 ± 4.1,99.2 ± 2.1,97.9 ± 7
O=C(O)c1c[nH]c(=S)[nH]c1=O [compound 1],> 100,> 100,98.7 ± 3,99.2 ± 2.7,> 100

# Continued, values first:
IC50 (KDM4D) [µM],IC50 (FIH) [µM],remaining activity at 100 µM (p300) [%],remaining activity at 100 µM (PCAF) [%],IC50 (KDM2A) [µM],Compound
27.5 ± 2,10.5 ± 0.8,97.7 ± 3,100 ± 2.9,49.6 ± 4,"CCCCCSc1ncc(C(=O)O)c(=O)[nH]1 [compound 4, 2-(Pentylthio)-3,4-dihydro-4-oxopyrimidine-5-carboxylic Acid]"
31.9 ± 1,15.3 ± 0.9,97.8 ± 3,100 ± 2.5,69.6 ± 3,"CSc1ncc(C(=O)O)c(=O)[nH]1 [compound 2, 2-(Methylthio)-3,4-dihydro-4-oxopyrimidine-5-carboxylic Acid]"
19.8 ± 0.9,4 ± 0.3,106 ± 3.5,104 ± 3.7,58.4 ± 3,"CCCCCCCCCSc1ncc(C(=O)O)c(=O)[nH]1 [compound 5, 2-(Nonylthio)-3,4-dihydro-4-oxopyrimidine-5-carboxylic Acid]"
26 ± 1.5,19.2 ± 1.2,98.6 ± 2.2,100 ± 3.7,64 ± 4,"O=C(O)c1cnc(SCCCCc2ccccc2)[nH]c1=O [compound 11, 2-((4-Phenylbutyl)thio)-3,4-dihydro-4-oxopyrimidine-5-carboxylic Acid]"
22 ± 1.2,30.1 ± 2,104 ± 4.1,103 ± 2.3,61.2 ± 4,"CCOC(=O)/C=C\Sc1ncc(C(=O)O)c(=O)[nH]1 [compound 12, (Z)-2-((3-Ethoxy-3-oxoprop-1-en-1-yl)thio)-3,4-dihydro-4-oxopyrimidine-5-carboxylic Acid]"
15.5 ± 0.8,15.9 ± 1.1,103 ± 2,101 ± 3.7,24.2 ± 2,"CCCCSc1ncc(C(=O)O)c(=O)[nH]1 [compound 3, 2-(Butylthio)-3,4-dihydro-4-oxopyrimidine-5-carboxylic Acid]"
